From a melting point compilation (Tetko et al.; mined from patent text by program, amines drawn as free bases though some values may be those of a salt)

Compared with `CN(CCCNC(=NCCCOc1cccc(CN2CCCCC2)c1)NC#N)CCN(Cc1ccc(F)cc1)c1ccccn1`, `CNC(=O)NCCN1CCC(Nc2nc3ccccc3n2Cc2ccc(F)cc2)CC1` is higher in melting point: 65 to 68 °C for the first, 231 °C for the second.

First: CCC1CC(=Cc2ccc(N(CC)CC)cc2)C(=O)C(=Cc2ccc(N(CC)CC)cc2)C1 (stereo not given)
Second: CCCCN(C)CCc1ccc(Nc2ncc3c(n2)-c2ccccc2C(c2cccc(Br)c2)C3)cc1 (stereo not given)
The melting point of the first is higher: 141 °C for the first, 66 to 68 °C for the second.

First: CCOC(=O)c1cn(-c2ccc(F)cc2F)c2nc(N3CCN(C(C)=O)CC3)c(F)cc2c1=O
Second: CCn1cc(C(=O)O)c(=O)c2cc(F)c(N3CCC4CCC(C3)N4)cc21 (stereo not given)
The melting point of the first is higher: 219 to 220 °C for the first, 147 to 150 °C for the second.

Compared with `Cn1nnnc1-c1cnc2cc(Br)ccc2c1O`, `Cc1ccc(Cn2nnc(C(N)=O)c2N)cc1` is lower in melting point: > 300 °C for the first, 223 to 225 °C for the second.

Compared with `COc1ccc(N2CCN(Cc3cnc(N)nc3N)CC2)cc1`, `CCCn1nnn(-c2ccc(N3CCN(c4ccc(OC)cc4)CC3)cc2)c1=O` is lower in melting point: 239 to 241 °C for the first, 190 °C for the second.

First: CN(C(CCN1C(=O)c2ccccc2C1=O)C(=O)NO)S(=O)(=O)c1ccc(Oc2ccc(F)cc2)cc1 (stereo not given)
Second: CCN1CCC(CC(=O)NOC(C)(C)C)(S(=O)(=O)c2ccc(Oc3ccccc3)cc2)CC1
The melting point of the first is lower: 100 to 101 °C for the first, 152 to 155 °C for the second.

First: O=C1CCC(N2Cc3cc(CNC(=O)Nc4ccc(Cl)c(C(F)(F)F)c4)ccc3C2=O)C(=O)N1 (stereo not given)
Second: N=C(N=C1NC(=O)C(=O)N1c1ccc(Cl)c(Cl)c1)Nc1ccc(Cl)c(Cl)c1
The melting point of the first is higher: 261 to 263 °C for the first, 220 °C for the second.

First: COc1ccc2c(c1)C(=O)c1cc(-c3nnn[nH]3)ccc1C2=O
Second: COc1nc(C)nc2c1-c1ccc(Cl)cc1C(c1ccccc1F)=NC2
The melting point of the first is higher: 265 to 266 °C for the first, 188 to 189 °C for the second.

Compared with `O=c1[nH]cnc2c1cnn2-c1ncc(C(F)(F)F)cc1Cl`, `FC(F)(F)c1cccc(-c2cc(C(F)(F)F)n3nccc3n2)c1` is lower in melting point: 331 °C for the first, 96 °C for the second.

First: O=C(NCCCCCCc1ccc(-c2ccc(=O)[nH]n2)cc1)c1cccnc1
Second: CCCCCCCCNC(=O)C(C)=Cc1cccc(N2CC(C(=O)O)CC2=O)c1 (stereo not given)
The melting point of the first is higher: 178 to 179 °C for the first, 120 to 121 °C for the second.

First: Cc1[nH]cnc1CC1CCc2c(C)c3ccccc3n2C1=O (stereo not given)
Second: CC[C@H]1Oc2ccccc2C(=O)N2CCC[C@@H]12
The melting point of the first is higher: 226 to 229 °C for the first, 118 to 119 °C for the second.

First: CNc1nc(-c2ccccc2)c(CCOC)c2ncnn12
Second: C=Cc1c(N)nc(-c2ccc(Cl)nc2)nc1C(=O)OC
The melting point of the first is lower: 133 to 136 °C for the first, 194 to 195 °C for the second.

Compared with `Cc1c(O)c(=O)ccn1CC(C)C`, `CC(C)Oc1ccc([N+](=O)[O-])cc1C(=O)O` is lower in melting point: 170 to 171 °C for the first, 124 to 125 °C for the second.

First: CCc1cn(C2CC(OCc3ccccc3)C(CNC(=O)Cc3c(Cl)cccc3Cl)O2)c(=O)[nH]c1=O (stereo not given)
Second: CC1=Cc2c(cccc2-c2cccc3ccccc23)C1
The melting point of the first is higher: 174 to 177 °C for the first, 143 °C for the second.

First: C[C@@H]1Cc2ccsc2[C@H](c2cccs2)N1CCNS(=O)(=O)c1ccc(N)cc1 (relative stereo)
Second: Cc1noc(NS(=O)(=O)c2c(Cc3ccc4c(c3)OCO4)sc3ccccc23)c1Cl
The melting point of the first is lower: 156 to 161 °C for the first, 178 to 181 °C for the second.

Compared with `C#CCOc1cc(N)c(F)cc1Cl`, `C=C(c1ccc(Cl)cc1)C1(n2ccnc2)CC1` is higher in melting point: 61 to 61.5 °C for the first, 94 to 95 °C for the second.

First: CN(C#N)C(=O)CCC(=O)N(C)C#N
Second: CCCC[C@@](C)(O)C(=O)O
The melting point of the first is higher: 112 to 114 °C for the first, 67.8 to 67.9 °C for the second.

First: Cc1nc(N2CCN(CC3CC3(F)F)C2=O)sc1C(=O)NCc1cncs1 (stereo not given)
Second: O=C(O)COc1ccccc1N1CCN(c2ccncc2)CC1
The melting point of the first is lower: 182 to 184 °C for the first, 294 to 296 °C for the second.

First: CC/C(=C\C#N)c1ccc2c(c1)C(CC)(CC)OC(=O)N2
Second: CC(COc1ccc(C(N)=O)c(O)c1)NCC(O)COc1cccc2c1CCC(=O)N2 (stereo not given)
The melting point of the first is lower: 135 to 136 °C for the first, 239 to 245 °C for the second.

`CC(=O)c1csc(-c2ccncc2)c1C` and `O=CC(=Cc1ccccc1)c1ccc(F)cc1` cannot be ordered by melting point: 87 to 87.5 °C for the first, 87 to 94 °C for the second.
